Test results taken from ChEMBL document CHEMBL5291721, “A preclinical secondary pharmacology resource illuminates target-adverse drug reaction associations of marketed drugs” (Nat Commun, 2023).

Tests used:
[1] = target: Voltage-dependent L-type calcium channel subunit alpha-1C (Homo sapiens, UniProt Q13936); type: functional, cell-based
Thromboxane A2 receptor = target: T1, Thromboxane A2 receptor (Homo sapiens, UniProt P21731); type: functional
T1 sequence (P21731 whole entry): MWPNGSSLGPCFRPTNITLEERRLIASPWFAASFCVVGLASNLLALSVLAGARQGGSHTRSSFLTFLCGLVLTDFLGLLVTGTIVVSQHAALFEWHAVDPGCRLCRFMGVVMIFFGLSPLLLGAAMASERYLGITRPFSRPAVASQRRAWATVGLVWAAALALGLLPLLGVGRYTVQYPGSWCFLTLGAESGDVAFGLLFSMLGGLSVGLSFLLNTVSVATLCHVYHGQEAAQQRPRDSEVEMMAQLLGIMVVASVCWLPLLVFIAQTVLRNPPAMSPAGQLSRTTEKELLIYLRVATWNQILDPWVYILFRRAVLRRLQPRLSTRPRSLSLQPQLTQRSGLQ

[2] = target: T2, Nuclear receptor subfamily 1 group I member 3 (Homo sapiens, UniProt Q14994); type: functional
T2 sequence (Q14994 whole entry): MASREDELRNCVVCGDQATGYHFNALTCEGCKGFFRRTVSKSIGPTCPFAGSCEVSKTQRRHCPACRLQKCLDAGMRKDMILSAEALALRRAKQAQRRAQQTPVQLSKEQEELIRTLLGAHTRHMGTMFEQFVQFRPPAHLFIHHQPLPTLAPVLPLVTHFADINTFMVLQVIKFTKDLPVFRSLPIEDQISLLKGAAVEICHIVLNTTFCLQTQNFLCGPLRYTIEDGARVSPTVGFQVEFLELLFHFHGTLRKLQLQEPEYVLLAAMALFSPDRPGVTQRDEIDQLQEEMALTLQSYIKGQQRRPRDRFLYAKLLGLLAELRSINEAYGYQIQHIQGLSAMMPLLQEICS

[3] = target: T3, Peroxisome proliferator-activated receptor alpha (Homo sapiens, UniProt Q07869); type: functional
T3 sequence (Q07869 whole entry): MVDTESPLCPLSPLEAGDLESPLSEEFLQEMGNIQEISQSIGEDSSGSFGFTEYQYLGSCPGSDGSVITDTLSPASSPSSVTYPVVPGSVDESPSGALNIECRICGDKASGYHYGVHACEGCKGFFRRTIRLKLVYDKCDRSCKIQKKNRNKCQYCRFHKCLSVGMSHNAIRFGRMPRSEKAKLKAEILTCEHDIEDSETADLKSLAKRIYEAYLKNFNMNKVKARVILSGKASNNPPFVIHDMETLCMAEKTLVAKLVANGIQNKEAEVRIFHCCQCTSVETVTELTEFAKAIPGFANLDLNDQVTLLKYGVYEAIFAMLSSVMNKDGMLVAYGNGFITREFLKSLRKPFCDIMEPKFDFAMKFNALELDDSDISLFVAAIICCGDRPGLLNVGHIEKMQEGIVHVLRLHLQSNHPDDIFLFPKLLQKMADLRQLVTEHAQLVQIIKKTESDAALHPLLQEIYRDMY

Androgen receptor = target: T4, Androgen receptor (Rattus norvegicus, UniProt P15207); type: functional
T4 sequence (P15207 whole entry): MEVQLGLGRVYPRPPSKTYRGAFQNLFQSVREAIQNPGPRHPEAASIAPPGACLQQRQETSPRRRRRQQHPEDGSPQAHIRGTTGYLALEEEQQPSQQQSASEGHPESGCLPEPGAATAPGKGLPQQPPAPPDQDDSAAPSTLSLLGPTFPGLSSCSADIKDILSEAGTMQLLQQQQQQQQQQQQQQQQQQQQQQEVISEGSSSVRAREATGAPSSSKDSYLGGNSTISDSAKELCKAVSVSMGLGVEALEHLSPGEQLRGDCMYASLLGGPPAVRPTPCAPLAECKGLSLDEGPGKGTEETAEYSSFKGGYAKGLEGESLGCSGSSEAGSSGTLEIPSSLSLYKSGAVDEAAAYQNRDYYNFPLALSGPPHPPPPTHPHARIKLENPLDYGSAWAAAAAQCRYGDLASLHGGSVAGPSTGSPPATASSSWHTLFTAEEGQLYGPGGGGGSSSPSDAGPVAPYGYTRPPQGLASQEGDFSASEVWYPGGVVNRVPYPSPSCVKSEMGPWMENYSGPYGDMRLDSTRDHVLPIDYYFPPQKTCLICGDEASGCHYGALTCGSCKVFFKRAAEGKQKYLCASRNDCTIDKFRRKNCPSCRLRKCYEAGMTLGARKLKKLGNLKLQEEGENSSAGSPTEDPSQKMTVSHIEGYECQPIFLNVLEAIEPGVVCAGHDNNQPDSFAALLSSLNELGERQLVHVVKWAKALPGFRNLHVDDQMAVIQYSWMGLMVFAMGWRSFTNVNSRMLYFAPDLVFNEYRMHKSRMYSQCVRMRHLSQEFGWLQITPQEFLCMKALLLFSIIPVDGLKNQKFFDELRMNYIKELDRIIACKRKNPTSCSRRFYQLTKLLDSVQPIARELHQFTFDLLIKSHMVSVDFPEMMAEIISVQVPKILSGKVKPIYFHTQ

[4] = target: T5, Muscarinic acetylcholine receptor M4 (Homo sapiens, UniProt P08173)
T5 sequence (P08173 whole entry): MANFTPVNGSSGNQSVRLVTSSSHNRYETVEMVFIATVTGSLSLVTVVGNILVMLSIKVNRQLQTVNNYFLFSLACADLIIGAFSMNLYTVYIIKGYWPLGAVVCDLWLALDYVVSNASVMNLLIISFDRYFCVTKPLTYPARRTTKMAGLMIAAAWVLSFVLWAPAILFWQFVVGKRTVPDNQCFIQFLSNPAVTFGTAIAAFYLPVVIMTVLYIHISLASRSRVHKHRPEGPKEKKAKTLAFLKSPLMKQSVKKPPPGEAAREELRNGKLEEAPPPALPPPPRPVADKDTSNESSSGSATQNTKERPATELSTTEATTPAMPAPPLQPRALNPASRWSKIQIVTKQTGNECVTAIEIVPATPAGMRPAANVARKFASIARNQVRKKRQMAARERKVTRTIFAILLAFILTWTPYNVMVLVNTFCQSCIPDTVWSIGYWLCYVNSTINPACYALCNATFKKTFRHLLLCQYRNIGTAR

D(1B) dopamine receptor = D(1B) dopamine receptor (Homo sapiens, UniProt P21918)
[5] = target: Rod cGMP-specific 3',5'-cyclic phosphodiesterase subunit alpha (Homo sapiens, UniProt P16499); type: functional
Acetylcholinesterase = Acetylcholinesterase (Homo sapiens, UniProt P22303); type: functional
Further: assay procedure not described here.

Chain of D(1B) dopamine receptor (P21918 whole entry): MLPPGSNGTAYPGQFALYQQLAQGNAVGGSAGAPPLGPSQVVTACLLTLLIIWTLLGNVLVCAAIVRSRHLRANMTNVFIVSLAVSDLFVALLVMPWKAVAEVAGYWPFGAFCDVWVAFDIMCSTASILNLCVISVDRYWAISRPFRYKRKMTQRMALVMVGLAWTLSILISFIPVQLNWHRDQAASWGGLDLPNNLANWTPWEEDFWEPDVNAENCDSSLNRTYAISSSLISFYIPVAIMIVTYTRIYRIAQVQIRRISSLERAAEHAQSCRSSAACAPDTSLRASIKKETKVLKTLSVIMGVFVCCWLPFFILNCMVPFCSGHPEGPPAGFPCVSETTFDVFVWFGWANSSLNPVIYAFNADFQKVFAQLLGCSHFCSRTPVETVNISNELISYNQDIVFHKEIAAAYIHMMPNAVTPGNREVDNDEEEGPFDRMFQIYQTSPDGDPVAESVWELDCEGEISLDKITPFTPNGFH
Chain of Rod cGMP-specific 3',5'-cyclic phosphodiesterase subunit alpha (P16499 whole entry): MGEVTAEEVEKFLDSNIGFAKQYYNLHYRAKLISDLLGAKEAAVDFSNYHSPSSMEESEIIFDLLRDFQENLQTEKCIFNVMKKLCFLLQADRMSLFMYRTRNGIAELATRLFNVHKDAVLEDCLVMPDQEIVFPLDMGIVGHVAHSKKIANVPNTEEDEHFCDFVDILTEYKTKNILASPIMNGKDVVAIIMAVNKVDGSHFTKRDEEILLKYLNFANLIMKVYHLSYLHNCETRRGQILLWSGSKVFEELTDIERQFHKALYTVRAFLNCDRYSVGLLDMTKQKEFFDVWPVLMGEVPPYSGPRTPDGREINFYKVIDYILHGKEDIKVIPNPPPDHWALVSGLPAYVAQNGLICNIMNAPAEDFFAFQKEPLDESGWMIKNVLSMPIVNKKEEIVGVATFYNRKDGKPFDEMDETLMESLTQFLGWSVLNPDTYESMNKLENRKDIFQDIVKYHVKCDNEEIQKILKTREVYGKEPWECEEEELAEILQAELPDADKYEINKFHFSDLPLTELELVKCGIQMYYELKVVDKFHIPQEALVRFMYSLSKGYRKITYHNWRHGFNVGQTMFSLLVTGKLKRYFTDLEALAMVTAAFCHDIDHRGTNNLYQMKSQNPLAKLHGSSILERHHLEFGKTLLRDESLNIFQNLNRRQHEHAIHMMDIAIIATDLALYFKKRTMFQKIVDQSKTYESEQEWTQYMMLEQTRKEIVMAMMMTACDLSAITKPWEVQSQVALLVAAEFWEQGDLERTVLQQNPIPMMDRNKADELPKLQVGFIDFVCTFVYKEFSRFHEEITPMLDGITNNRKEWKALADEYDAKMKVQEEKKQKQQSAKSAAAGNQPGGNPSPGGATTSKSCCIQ
Chain of Acetylcholinesterase (P22303 whole entry): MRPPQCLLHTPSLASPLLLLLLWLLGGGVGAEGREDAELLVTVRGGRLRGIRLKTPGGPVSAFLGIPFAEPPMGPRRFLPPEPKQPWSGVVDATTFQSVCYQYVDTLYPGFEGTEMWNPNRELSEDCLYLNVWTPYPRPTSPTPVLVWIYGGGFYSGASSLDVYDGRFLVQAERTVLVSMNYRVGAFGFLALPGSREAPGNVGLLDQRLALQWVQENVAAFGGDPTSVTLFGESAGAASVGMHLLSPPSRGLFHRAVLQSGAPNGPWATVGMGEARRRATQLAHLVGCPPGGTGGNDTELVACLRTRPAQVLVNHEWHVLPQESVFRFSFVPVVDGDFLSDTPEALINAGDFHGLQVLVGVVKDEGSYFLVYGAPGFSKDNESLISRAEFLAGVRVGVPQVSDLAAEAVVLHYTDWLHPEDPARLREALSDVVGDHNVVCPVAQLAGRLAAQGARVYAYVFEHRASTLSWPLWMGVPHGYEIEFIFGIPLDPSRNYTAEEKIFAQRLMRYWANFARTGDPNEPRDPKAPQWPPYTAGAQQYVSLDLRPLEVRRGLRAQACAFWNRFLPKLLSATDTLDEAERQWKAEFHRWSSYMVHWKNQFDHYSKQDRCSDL
Chain of Voltage-dependent L-type calcium channel subunit alpha-1C (Q13936 whole entry): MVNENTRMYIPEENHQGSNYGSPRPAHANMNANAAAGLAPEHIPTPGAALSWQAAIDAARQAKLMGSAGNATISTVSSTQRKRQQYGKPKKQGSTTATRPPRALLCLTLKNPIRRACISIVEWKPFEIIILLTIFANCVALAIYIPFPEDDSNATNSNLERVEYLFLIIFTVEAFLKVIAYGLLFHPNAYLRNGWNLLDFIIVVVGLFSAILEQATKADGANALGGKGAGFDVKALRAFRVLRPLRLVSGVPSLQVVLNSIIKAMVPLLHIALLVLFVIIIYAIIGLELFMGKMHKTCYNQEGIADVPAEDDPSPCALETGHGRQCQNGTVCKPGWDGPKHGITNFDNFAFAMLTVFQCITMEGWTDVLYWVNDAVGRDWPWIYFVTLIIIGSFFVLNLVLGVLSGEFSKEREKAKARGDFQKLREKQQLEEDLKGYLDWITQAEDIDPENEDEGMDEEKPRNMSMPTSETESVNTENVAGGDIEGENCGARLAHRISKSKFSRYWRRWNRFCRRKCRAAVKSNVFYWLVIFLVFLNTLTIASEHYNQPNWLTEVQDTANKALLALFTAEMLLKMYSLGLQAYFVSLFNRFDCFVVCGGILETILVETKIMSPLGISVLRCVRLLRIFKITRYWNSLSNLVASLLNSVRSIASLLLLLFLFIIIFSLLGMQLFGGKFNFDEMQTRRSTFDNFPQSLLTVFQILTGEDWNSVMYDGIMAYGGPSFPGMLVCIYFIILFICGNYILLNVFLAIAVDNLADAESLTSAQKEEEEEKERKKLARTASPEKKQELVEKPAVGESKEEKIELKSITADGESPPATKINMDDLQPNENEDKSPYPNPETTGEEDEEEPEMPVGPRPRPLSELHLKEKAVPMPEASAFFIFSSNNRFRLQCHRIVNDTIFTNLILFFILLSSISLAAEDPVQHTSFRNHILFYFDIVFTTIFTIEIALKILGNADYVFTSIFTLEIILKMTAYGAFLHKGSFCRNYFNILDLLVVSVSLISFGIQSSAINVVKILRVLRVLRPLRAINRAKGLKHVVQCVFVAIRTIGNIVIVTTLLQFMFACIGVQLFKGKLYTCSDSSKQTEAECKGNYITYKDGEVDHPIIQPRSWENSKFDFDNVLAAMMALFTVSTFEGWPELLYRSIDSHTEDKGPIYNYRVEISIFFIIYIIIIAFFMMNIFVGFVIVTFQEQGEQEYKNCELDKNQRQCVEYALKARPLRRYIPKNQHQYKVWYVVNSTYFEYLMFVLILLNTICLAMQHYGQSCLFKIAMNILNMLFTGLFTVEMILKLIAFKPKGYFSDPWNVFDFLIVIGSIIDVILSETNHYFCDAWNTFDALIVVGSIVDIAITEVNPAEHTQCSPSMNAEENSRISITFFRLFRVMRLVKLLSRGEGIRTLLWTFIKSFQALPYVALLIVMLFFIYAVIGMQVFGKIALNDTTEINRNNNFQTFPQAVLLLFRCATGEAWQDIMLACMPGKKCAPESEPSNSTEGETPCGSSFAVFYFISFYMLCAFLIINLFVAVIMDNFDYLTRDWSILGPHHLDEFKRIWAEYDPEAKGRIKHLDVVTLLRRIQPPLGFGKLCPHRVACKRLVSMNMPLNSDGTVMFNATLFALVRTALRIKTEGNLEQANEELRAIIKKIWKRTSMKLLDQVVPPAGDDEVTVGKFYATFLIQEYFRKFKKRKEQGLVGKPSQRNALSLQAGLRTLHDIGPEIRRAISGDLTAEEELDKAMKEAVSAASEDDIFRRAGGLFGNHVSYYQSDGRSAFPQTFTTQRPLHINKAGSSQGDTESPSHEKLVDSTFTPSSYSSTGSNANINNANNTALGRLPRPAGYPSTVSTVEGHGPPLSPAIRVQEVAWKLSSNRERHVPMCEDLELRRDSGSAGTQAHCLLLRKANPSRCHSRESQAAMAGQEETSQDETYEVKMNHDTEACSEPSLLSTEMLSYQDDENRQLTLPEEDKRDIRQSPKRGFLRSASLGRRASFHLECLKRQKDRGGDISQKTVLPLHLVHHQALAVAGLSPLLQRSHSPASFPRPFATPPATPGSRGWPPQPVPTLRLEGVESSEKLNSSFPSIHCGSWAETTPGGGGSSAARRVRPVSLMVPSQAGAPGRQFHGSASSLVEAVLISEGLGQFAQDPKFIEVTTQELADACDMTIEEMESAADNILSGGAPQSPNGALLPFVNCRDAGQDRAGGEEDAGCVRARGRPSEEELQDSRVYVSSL

With `COc1ccccc1OCC(O)CN1CCN(CC(=O)Nc2c(C)cccc2C)CC1` (stereo not drawn) [RANOLAZINE] the AC50 [1] was > 50 µM.

`CCCCCCOc1nsnc1C1=CCCN(C)C1` [XANOMELINE] showed an AC50 [1] of 10 µM.

For `Cc1cn([C@H]2C=C[C@@H](CO)O2)c(=O)[nH]c1=O` [STAVUDINE], the AC50 (Thromboxane A2 receptor) was > 30 µM.

In the case of `CN1C(C(=O)Nc2ccccn2)=C(O)c2sc(Cl)cc2S1(=O)=O` [LORNOXICAM], the AC50 [2] is reported as > 30 µM and the AC50 [3] is reported as > 30 µM.

For `O=C(O[C@H]1C[C@H]2CC[C@@H](C1)[N+]21CCCC1)C(O)(c1ccccc1)c1ccccc1` [TROSPIUM], the AC50 (Androgen receptor) was > 30 µM.

In the case of `Cc1c(C(=O)NN2CCCCC2)nn(-c2ccc(Cl)cc2Cl)c1-c1ccc(Cl)cc1` [RIMONABANT], the AC50 [4] is reported as > 10 µM, the AC50 (D(1B) dopamine receptor) is reported as > 10 µM and the AC50 [2] is reported as 6.6 µM. The AC50 [5] was > 10 µM, the AC50 [3] was > 30 µM and the AC50 (Thromboxane A2 receptor) was > 30 µM. For the same compound, the AC50 (Acetylcholinesterase) was > 30 µM.

For `CS(=O)(=O)c1ccc(C2=C(c3ccccc3)C(=O)OC2)cc1` [ROFECOXIB], the AC50 [4] was > 10 µM, the AC50 (D(1B) dopamine receptor) was > 10 µM and the AC50 [5] was > 10 µM.

For `Cn1nnc2c(C(N)=O)ncn2c1=O` [TEMOZOLOMIDE], the AC50 (Thromboxane A2 receptor) was > 30 µM and the AC50 (Acetylcholinesterase) was > 30 µM.

For `CN(C)CCC(c1ccc(Cl)cc1)c1ccccn1` (stereo not drawn) [CHLORPHENIRAMINE], the AC50 [4] was > 10 µM, the AC50 (D(1B) dopamine receptor) was > 10 µM and the AC50 [5] was > 10 µM.

`c1cnc(N2CCN(Cc3ccc4c(c3)OCO4)CC2)nc1` [PIRIBEDIL] was tested, and the AC50 (Thromboxane A2 receptor) was > 30 µM and the AC50 (Acetylcholinesterase) was > 30 µM.

`C[C@@H](O)[C@H]1C(=O)N2C(C(=O)O)=C(S[C@@H]3CN[C@H](C(=O)N(C)C)C3)[C@H](C)[C@H]12` [MEROPENEM] was tested, and the AC50 (Thromboxane A2 receptor) was > 300 µM and the AC50 (Acetylcholinesterase) was > 300 µM.

With `CC[C@H]1[C@@H](O)[C@@H]2[C@H](CC[C@]3(C)[C@@H]([C@H](C)CCC(=O)O)CC[C@@H]23)[C@@]2(C)CC[C@@H](O)C[C@@H]12` [OBETICHOLIC ACID] the AC50 (Androgen receptor) was > 30 µM and the AC50 [1] was > 30 µM.

With `C=CCc1ccccc1OCC(O)CNC(C)C` (stereo not drawn) [ALPRENOLOL] the AC50 (Androgen receptor) was > 30 µM.

In the case of `COc1ccc(CC(C)(C)NC[C@H](O)c2cc(O)cc3c2OCC(=O)N3)cc1` [OLODATEROL], the AC50 (Acetylcholinesterase) is reported as > 30 µM.

`c1ccc([C@H]2CN3CCSC3=N2)cc1` [LEVAMISOLE] was tested, and the AC50 (Thromboxane A2 receptor) was > 30 µM and the AC50 (Acetylcholinesterase) was > 30 µM.

`N[C@@H]1[C@H]2CN(c3nc4c(cc3F)c(=O)c(C(=O)O)cn4-c3ccc(F)cc3F)C[C@@H]12` [TROVAFLOXACIN] was tested, and the AC50 [2] was > 30 µM, the AC50 (Thromboxane A2 receptor) was > 30 µM and the AC50 (Acetylcholinesterase) was > 30 µM.

With `CNC1Cc2ccccc2N(C)c2ccccc21` (stereo not drawn) [METAPRAMINE] the AC50 (Thromboxane A2 receptor) was > 30 µM and the AC50 (Acetylcholinesterase) was > 30 µM.

In the case of `CC(C)C[C@H]1C(=O)N2CCC[C@H]2[C@]2(O)O[C@](NC(=O)[C@@H]3C=C4c5cccc6[nH]c(Br)c(c56)C[C@H]4N(C)C3)(C(C)C)C(=O)N12` [BROMOCRIPTINE], the AC50 (Thromboxane A2 receptor) is reported as > 30 µM and the AC50 (Acetylcholinesterase) is reported as > 30 µM.

In the case of `O=C(OCC(O)CO)c1ccccc1Nc1ccnc2cc(Cl)ccc12` (stereo not drawn) [GLAFENINE], the AC50 (Thromboxane A2 receptor) is reported as > 30 µM and the AC50 (Acetylcholinesterase) is reported as > 30 µM.

For `CCC1=C(C)CN(C(=O)NCCc2ccc(S(=O)(=O)NC(=O)N[C@H]3CC[C@H](C)CC3)cc2)C1=O` [GLIMEPIRIDE], the AC50 [3] was > 30 µM.

With `CC(=O)Nc1ccc(O)cc1` [ACETAMINOPHEN] the AC50 [3] was > 30 µM.

In the case of `NCC(CC(=O)O)c1ccc(Cl)cc1` (stereo not drawn) [BACLOFEN], the AC50 [4] is reported as > 10 µM, the AC50 (D(1B) dopamine receptor) is reported as > 10 µM and the AC50 [5] is reported as > 10 µM. For the same compound, the AC50 (Thromboxane A2 receptor) was > 30 µM and the AC50 (Acetylcholinesterase) was > 30 µM.

For `Cc1ccc(-c2cc(C(F)(F)F)nn2-c2ccc(S(N)(=O)=O)cc2)cc1` [CELECOXIB], the AC50 [4] was > 10 µM, the AC50 (D(1B) dopamine receptor) was > 10 µM and the AC50 [5] was > 10 µM.

For `CO[C@H]1C[C@@H]2CC[C@@H](C)[C@@](O)(O2)C(=O)C(=O)N2CCCC[C@H]2C(=O)O[C@H]([C@H](C)C[C@@H]2CC[C@@H](O)[C@H](OC)C2)CC(=O)[C@H](C)/C=C(\C)[C@@H](O)[C@@H](OC)C(=O)[C@H](C)C[C@H](C)/C=C/C=C/C=C/1C` [SIROLIMUS], the AC50 [1] was > 50 µM.

For `CCC(C)n1ncn(-c2ccc(N3CCN(c4ccc(OCC5COC(Cn6cncn6)(c6ccc(Cl)cc6Cl)O5)cc4)CC3)cc2)c1=O` (stereo not drawn) [ITRACONAZOLE], the AC50 [2] was > 30 µM and the AC50 [3] was > 30 µM.
